Legend:
[1] = molecular target: T1, NS3-NS4 (Hepatitis C virus genotype 1a, UniProt P27958); experiment: NS3-NS4 activity, IC50 (Example 37, Table 8); format: biochemical
[2] = molecular target: T1, NS3-NS4; experiment: cell-based; conditions: EC50, NS3-NS4 activity

T1 sequence (P27958 1027-1657): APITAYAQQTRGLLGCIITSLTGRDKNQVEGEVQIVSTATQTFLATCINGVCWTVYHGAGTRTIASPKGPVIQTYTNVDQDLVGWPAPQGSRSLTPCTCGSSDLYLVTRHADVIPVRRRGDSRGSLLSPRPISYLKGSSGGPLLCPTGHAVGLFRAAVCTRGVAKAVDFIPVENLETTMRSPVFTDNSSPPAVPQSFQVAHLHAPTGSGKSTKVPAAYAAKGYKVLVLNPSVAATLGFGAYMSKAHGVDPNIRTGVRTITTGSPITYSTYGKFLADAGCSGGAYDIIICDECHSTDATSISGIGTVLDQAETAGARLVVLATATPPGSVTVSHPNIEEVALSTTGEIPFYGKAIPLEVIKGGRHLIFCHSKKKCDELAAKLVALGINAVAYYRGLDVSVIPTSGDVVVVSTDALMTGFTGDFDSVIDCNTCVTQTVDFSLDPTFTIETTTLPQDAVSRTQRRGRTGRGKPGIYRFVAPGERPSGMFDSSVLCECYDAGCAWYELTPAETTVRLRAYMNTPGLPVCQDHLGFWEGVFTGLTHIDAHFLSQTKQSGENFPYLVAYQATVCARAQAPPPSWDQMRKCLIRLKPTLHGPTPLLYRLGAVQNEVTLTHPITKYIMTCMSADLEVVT
T1 sequence (P27958 1658-1711): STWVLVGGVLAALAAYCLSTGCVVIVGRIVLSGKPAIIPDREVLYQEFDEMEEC

| Structure (SMILES) | IC50 [1] | EC50 [2] |
| --- | --- | --- |
| O=C(N[C@H]1CCCCC/C=C\[C@@H]2C[C@@]2(C(=O)NS(=O)(=O)C2CC2)NC(=O)[C@@H]2C[C@@H](OC(=O)N3Cc4cccc(F)c4C3)CN2C1=O)OC1CCOCC1 [Compound 401, (2R,6S,13aS,14aR,16aS,Z)-14a-(cyclopropylsulfonylcarbamoyl)-5,16-dioxo-6-((tetrahydro-2H-pyran-4-yloxy)carbonylamino)-1,2,3,5,6,7,8,9,10,11,13a,14,14a,15,16,16a-hexadecahydrocyclopropa[e]pyrrolo[1,2-a][1,4]diazacyclopentadecin-2-yl 4-fluoroisoindoline-2-carboxylate] | < 0.1 µM | < 0.1 µM |
| O=C1N[C@]2(C(=O)NS(=O)(=O)C3CC3)C[C@H]2/C=C\CCC(F)(F)CC[C@H](NC(=O)C2(C(F)(F)F)CC2)C(=O)N2C[C@H](OC(=O)N3Cc4cccc(F)c4C3)C[C@@H]12 [Compound 408] | < 0.1 µM | < 0.1 µM |
| CC(C)(C)OC(=O)N[C@H]1CCCCC/C=C\[C@@H]2C[C@@]2(C(=O)NOc2ccc(-c3ccccc3)cc2)NC(=O)[C@@H]2C[C@@H](OC(=O)N3Cc4cccc(F)c4C3)CN2C1=O [Compound 710] | < 0.1 µM | 1 to 10 µM |
| CC(C)(C)OC(=O)N[C@H]1CCCCC/C=C\[C@@H]2C[C@@]2(C(=O)NS(=O)(=O)c2ccccc2Cl)NC(=O)[C@@H]2C[C@@H](OC(=O)N3Cc4cccc(F)c4C3)CN2C1=O [Compound 332] | < 0.1 µM | < 0.1 µM |
| CC(C)(C)OC(=O)N[C@H]1CCCCC/C=C\[C@@H]2C[C@@]2(C(=O)NS(=O)(=O)c2cccnc2Cl)NC(=O)[C@@H]2C[C@@H](OC(=O)N3Cc4cccc(F)c4C3)CN2C1=O [Compound 529] | < 0.1 µM | < 0.1 µM |
| Cc1ccc(S(=O)(=O)NC(=O)[C@@]23C[C@H]2/C=C\CCCCC[C@H](NC(=O)OC(C)(C)C)C(=O)N2C[C@H](OC(=O)N4Cc5cccc(F)c5C4)C[C@H]2C(=O)N3)cc1F [Compound 301, (2R,6S,13aS,14aR,16aS,Z)-6-(tert-butoxycarbonylamino)-14a-(3-fluoro-4-methylphenylsulfonylcarbamoyl)-5,16-dioxo-1,2,3,5,6,7,8,9,10,11,13a,14,14a,15,16,16a-hexadecahydrocyclopropa[e]pyrrolo[1,2-a][1,4]diazacyclopentadecin-2-yl 4-fluoroisoindoline-2-carboxylate] | < 0.1 µM | < 0.1 µM |
| Cc1ccc(ONC(=O)[C@@]23C[C@H]2/C=C\CCCCC[C@H](NC(=O)OC(C)(C)C)C(=O)N2C[C@H](OC(=O)N4Cc5cccc(F)c5C4)C[C@H]2C(=O)N3)cc1C [Compound 714] | < 0.1 µM | 1 to 10 µM |
| O=C(N[C@H]1CCCCC/C=C\[C@@H]2C[C@@]2(C(=O)NS(=O)(=O)c2ccc(Cl)cc2)NC(=O)[C@@H]2C[C@@H](OC(=O)N3Cc4cccc(Cl)c4C3)CN2C1=O)OC1CCOCC1 [Compound 335] | < 0.1 µM | 0.1 to 1 µM |
| CCC1(OC(=O)N[C@H]2CCCCC/C=C\[C@@H]3C[C@@]3(C(=O)NS(=O)(=O)C3CC3)NC(=O)[C@@H]3C[C@@H](OC(=O)N4Cc5cccc(F)c5C4)CN3C2=O)CC1 [Compound 442] | < 0.1 µM | < 0.1 µM |
| CC(C)CONC(=O)[C@@]12C[C@H]1CCCCCCC[C@H](NC(=O)OC(C)(C)C)C(=O)N1C[C@H](OC(=O)N3Cc4cccc(F)c4C3)C[C@H]1C(=O)N2 [Compound 814] | < 0.1 µM | < 0.1 µM |
| Cc1cccc(S(=O)(=O)NC(=O)[C@@]23C[C@H]2/C=C\CCCCC[C@H](NC(=O)OC(C)(C)C)C(=O)N2C[C@H](OC(=O)N4Cc5cccc(F)c5C4)C[C@H]2C(=O)N3)c1 [Compound 317] | < 0.1 µM | < 0.1 µM |
| CC(C)(C)OC(=O)N[C@H]1CCCCC/C=C\C2CC2(C(=O)NOc2ccccc2)NC(=O)[C@@H]2C[C@@H](OC(=O)N3Cc4cccc(F)c4C3)CN2C1=O (stereo in doubt) [Compound 101, (2R,6S,13aS,14aR,16aS,Z)-6-(tert-butoxycarbonylamino)-5,16-dioxo-14a-(phenoxycarbamoyl)-1,2,3,5,6,7,8,9,10,11,13a,14,14a,15,16,16a-hexadecahydrocyclopropa[e]pyrrolo[1,2-a][1,4]diazacyclopentadecin-2-yl 4-fluoroisoindoline-2-carboxylate] | < 0.1 µM | < 0.1 µM |
| CC(C)(C)OC(=O)N[C@H]1CCCCC/C=C\[C@@H]2C[C@@]2(C(=O)NS(=O)(=O)c2cc(Cl)c(Cl)s2)NC(=O)[C@@H]2C[C@@H](OC(=O)N3Cc4cccc(F)c4C3)CN2C1=O [Compound 354] | < 0.1 µM | 0.1 to 1 µM |
| CCc1ccc(S(=O)(=O)NC(=O)[C@@]23C[C@H]2/C=C\CCCCC[C@H](NC(=O)OC(C)(C)C)C(=O)N2C[C@H](OC(=O)N4Cc5cccc(F)c5C4)C[C@H]2C(=O)N3)cc1 [Compound 320] | < 0.1 µM | < 0.1 µM |
| O=C1N[C@]2(C(=O)NS(=O)(=O)C3CC3)C[C@H]2/C=C\CCC(F)(F)CC[C@H](NC(=O)C2(C(F)(F)F)CC2)C(=O)N2C[C@H](OC(=O)N3Cc4ccccc4C3)C[C@@H]12 [Compound 409] | < 0.1 µM | < 0.1 µM |
| CC(C)(C)OC(=O)N[C@H]1CCCCC/C=C\[C@@H]2C[C@@]2(C(=O)NS(=O)(=O)c2ccc(F)c(F)c2)NC(=O)[C@@H]2C[C@@H](OC(=O)N3Cc4cccc(F)c4C3)CN2C1=O [Compound 315] | < 0.1 µM | < 0.1 µM |
| CC(C)(C)OC(=O)N[C@H]1CCCCC/C=C\[C@@H]2C[C@@]2(C(=O)NS(=O)(=O)Cc2ccc(Cl)cc2)NC(=O)[C@@H]2C[C@@H](OC(=O)N3Cc4cccc(F)c4C3)CN2C1=O [Compound 512] | < 0.1 µM | < 0.1 µM |
| Cc1ccc(S(=O)(=O)NC(=O)[C@@]23C[C@H]2/C=C\CCCCC[C@H](NC(=O)OC(C)(C)C)C(=O)N2C[C@H](OC(=O)N4Cc5cccc(F)c5C4)C[C@H]2C(=O)N3)cc1 [Compound 318] | < 0.1 µM | < 0.1 µM |
| CC(C)ONC(=O)[C@@]12C[C@H]1CCCCCCC[C@H](NC(=O)OC(C)(C)C)C(=O)N1C[C@H](OC(=O)N3Cc4cccc(F)c4C3)C[C@H]1C(=O)N2 [Compound 812] | < 0.1 µM | < 0.1 µM |
| CC(C)(OC(=O)N[C@H]1CCCCC/C=C\[C@@H]2C[C@@]2(C(=O)NS(=O)(=O)C2CC2)NC(=O)[C@@H]2C[C@@H](OC(=O)N3Cc4cccc(F)c4C3)CN2C1=O)C1CC1 [Compound 443] | < 0.1 µM | < 0.1 µM |
| O=C(N[C@H]1CCCCC/C=C\[C@@H]2C[C@@]2(C(=O)NS(=O)(=O)C2CC2)NC(=O)[C@@H]2C[C@@H](OC(=O)N3Cc4cccc(Cl)c4C3)CN2C1=O)OC1CCC1 [Compound 433] | < 0.1 µM | < 0.1 µM |
| CC(C)ONC(=O)[C@@]12C[C@H]1/C=C\CCCCC[C@H](NC(=O)OC(C)(C)C)C(=O)N1C[C@H](OC(=O)N3Cc4cccc(F)c4C3)C[C@H]1C(=O)N2 [Compound 718] | < 0.1 µM | < 0.1 µM |
| CC(=O)O[C@@H]1C[C@H]2C(=O)N[C@]3(C(=O)NS(=O)(=O)C4CC4)C[C@H]3/C=C\CCCCC[C@H](Nc3nc(-c4ccccc4)c(-c4ccccc4)s3)C(=O)N2C1 [Compound 235] | < 0.1 µM | 0.1 to 1 µM |
| CC(=O)O[C@@H]1C[C@H]2C(=O)N[C@]3(C(=O)NS(=O)(=O)C4CC4)C[C@H]3/C=C\CCCCC[C@H](Nc3nc(-c4ccc(F)cc4)c(C)s3)C(=O)N2C1 [Compound 239] | < 0.1 µM | 0.1 to 1 µM |

— patent US20090155209A1, “NOVEL MACROCYCLIC INHIBITORS OF HEPATITIS C VIRUS REPLICATION” (priority 2007, published 2009)
